Test results reported in patent publication US20250213560A1, “NITROGEN-CONTAINING HETEROCYCLIC COMPOUNDS HAVING PHENYL GROUP AND USES THEREOF” (BNH RESEARCH CO., LTD., priority 2022, published 2025).
“Also recorded” adds a separate entry of the source.

Assays:
[1] = system: rodent (rat) model of post-traumatic stress disorder; test: Post-traumatic stress disorder animal model, freezing time; format: in vivo; conditions: PTSD rats, intraperitoneal 25 mg/kg, checked at 3-day intervals, compared to control group
Description: The animals were obtained from the DBL. Animals are obtained 7 days before the test start. Twenty male SD-rats aged about 7 weeks were used. Animals were maintained in conventional environmental conditions according to the 12/12 hours light-dark cycle in the colony room, with access to food and water ad libitum. The rats were acclimatized to their new housing cage over a period of 7 days. The animals were carried out for all tests. All experiments were performed in accordance with the Guide for the Care and Use of Laboratory Animals, and all efforts were made to minimize animal suffering. Weight was measured at 3-day intervals from Day 7.
This protocol involves two times exposure to foot shock without an opportunity of escape.
The weight was measured three hours before the experiment. The temperature of the laboratory was maintained at 22° C. The animals were placed in the dark laboratory space for 10 minutes to adapt. The animals were each placed in the first room. […]
The weight was measured three hours before the experiment. […]
For the freezing check, 7 days after the initial foot shock protocol, the rats were placed in the first compartment with sandpaper of the apparatus for 5 minutes (no foot shock) and the freezing behavior was recorded using shutavoid_v1803 program (Panlab, Spain) according to the manufacturer's instruction. […]

BDNF = BDNF expression in SH-SY5Y cells; format: cell-based, human; conditions: 1 μM, application for 6 and 24 hours
Description: (§1) Human undifferentiated neuroblastoma cell line SH-SY5Y and human embryonic kidney cell line (HEK)-293T were purchased from Korean Cell Line Bank (Korea) and Takara (Japan), respectively. Cells were grown in HyClone Minimal Essential Medium (MEM) and Dulbecco's Modified Eagle Medium (DMEM), respectively, supplemented with 10% (v/v) fetal bovine serum (FBS), penicillin (100 U/mL), and streptomycin ([…]). Cells were maintained in a humidified atmosphere of 95% air and 5% CO2 at 37° C. Cells were passaged 10 times at maximum. Cells were dissociated using 0.05% trypsin-EDTA solution and the cells were seeded in new culture dishes for maintenance.
(§2) RT-PCR was used to measure the amount of BDNF and GluN2B in response to compounds of the present disclosure. 293T cells were dissociated using 0.05% Trypsin-EDTA solution and seeded in 24 well or 6 well dishes for RNA work. After incubation at 37° C. in a humidified atmosphere with 5% CO2 for 24 hours, the culture medium was replaced by a medium containing a series of concentrations of tested compounds diluted with the DMEM without FBS. Time course experiments were performed. The same volume of DMSO was used for negative control.
(§3) Similarly, BnH12003 (1 μM) augmented BDNF and GluN2B expression by application for 6 and 24 hours in SH-SY5Y cells (FIGS. 11A and 11B).

GluN2B = GluN2B expression in SH-SY5Y cells; format: cell-based, human; conditions: 1 μM, application for 6 and 24 hours
Description: as §1, §2, §3

SMILES: C[C@H]1CC[C@@H](C(=O)O)CN1C(=O)Cc1ccc(-c2cncnc2)cc1 [BnH12003, (3R,6S)-6-methyl-1-(2-(4-(pyrimidin-5-yl)phenyl)acetyl) piperidine-3-carboxylic acid]
- freezing time [1]: liberated such rodents from trauma at a significantly faster rate; also recorded: significant decrease in freezing time
- BDNF expression (BDNF): augmented
- GluN2B expression (GluN2B): augmented
